Earlier results as cited in patent US8415273B2, “Broadleaf perennial weed control agent for grass, and method for controlling broadleaf perennial weeds in grass” (Nippon Soda Co., Ltd., priority 2007, dated 2013).

Key:
[1] = test system: broadleaf annual weeds such as chickweed and gramineous weeds such as crabgrass
[2] = test system: turf grasses such as Zoysia japonica and Zoysia tenuifolia; details: soil-based herbicide

Compound: NC(=O)c1nc(-c2ccccc2)n(-c2ccc(Cl)c(COCC(F)(F)C(F)(F)F)c2)n1 [flupoxam, 1-[4-chloro-3-[(2,2,3,3,3-pentafluoropropoxy)methyl]phenyl]-5-phenyl-1H-1,2,4-triazole-3-carboxamide]
- Control action on annual weeds in grass [1]: powerful control action
- Detrimental effects on turf grasses [2]: no detrimental effects
